Here are results for 27 molecules from article PMC7587356, “High-Throughput Screening for Inhibitors of the SARS-CoV-2 Protease Using a FRET-Biosensor” (Molecules, 2020).

The target in the experiment is SARS-CoV-2 3CLpro (Severe acute respiratory syndrome coronavirus 2, UniProt P0DTD1). The experiment can be described thus: biochemical. The format is biochemical. Set-up: Replicate_1 / Replicate_2 / mean / mean (LOPAC_screen_w_protease): unit not given here. The conditions noted are these: for inhibition at 5 µM: 4 h.
[1] abbreviates: LOPAC1280 primary screen with protease, 5 µM compound, mean of two replicates.
[2] abbreviates: LOPAC1280 primary screen with protease, 5 µM compound, replicate 1.
Where [3] appears, read: LOPAC1280 primary screen with protease, 5 µM compound, replicate 2.
Where [4] appears, read: sheet LOPAC_screen_w_protease, LOPAC1280 primary screen with protease, 5 µM compound, mean of the two replicates.
The mark [5] stands for this setting: sheet LOPAC_screen_w_protease, LOPAC1280 primary screen with protease, 5 µM compound, replicate 1.
The mark [6] stands for this setting: sheet LOPAC_screen_w_protease, LOPAC1280 primary screen with protease, 5 µM compound, replicate 2.
The mark [7] stands for this setting: sheet LOPAC_screen_w_protease, LOPAC1280 primary screen at 5 µM, with protease, mean of the two replicates.
The mark [8] stands for this setting: sheet LOPAC_screen_w_protease, LOPAC1280 primary screen at 5 µM, with protease, replicate 1.
Where [9] appears, read: sheet LOPAC_screen_w_protease, LOPAC1280 primary screen at 5 µM, with protease, replicate 2.
Setting [10] is: sheet LOPAC_screen_w_protease, LOPAC1280 at 5 µM, mean of two replicates.
The mark [11] stands for this setting: sheet LOPAC_screen_w_protease, LOPAC1280 at 5 µM, replicate 1.
The mark [12] stands for this setting: sheet LOPAC_screen_w_protease, LOPAC1280 at 5 µM, replicate 2.
The mark [13] stands for this setting: sheet LOPAC_screen_w_protease, primary screen with protease, mean of two replicates.
[14] abbreviates: sheet LOPAC_screen_w_protease, primary screen with protease, replicate 1.
Setting [15] is: sheet LOPAC_screen_w_protease, primary screen with protease, replicate 2.
[16] abbreviates: LOPAC1280 primary screen with protease, 5 µM compound, mean of the two replicates.

Molecules are shown by their SMILES. Where a name gives a salt, the structure may show the parent alone. Read-outs that look alike come from different tables or passages of the source.

Regarding `O=C(O)[C@@H]1C[C@H](C(=O)O)N1` [cis-Azetidine-2,4-dicarboxylic acid], under setting [1], the “mean (LOPAC_screen_w_protease)” value came to 1.501. Besides, under setting [2], the “Replicate_1 (LOPAC_screen_w_protease)” value was found to be 1.545. Besides, the “Replicate_2 (LOPAC_screen_w_protease)” value under setting [3] stood at 1.457.
As for `COc1ccccc1OCC(O)CN1CCN(CC(=O)Nc2c(C)cccc2C)CC1` (centres unmarked) [Ranolazine dihydrochloride], the inhibition at 5 µM is 0.975% (sheet LOPAC_screen_w_protease, LOPAC1280 at 5 µM, mean of two replicates, read-out: mean); 1.18% (sheet LOPAC_screen_w_protease, LOPAC1280 at 5 µM, replicate 1, read-out: Replicate_1); 0.768% (sheet LOPAC_screen_w_protease, LOPAC1280 at 5 µM, replicate 2, read-out: Replicate_2).
`CC(N)Cc1c[nH]c2ccc(O)cc12.O=C(O)/C=C\C(=O)O` (stereo not drawn) [alpha-Methyl-5-hydroxytryptamine maleate] displayed a mean under setting [4] of 6.214. The molecule further showed a Replicate_1 under setting [5] of 5.086. Further, the Replicate_2 under setting [6] is recorded as 7.342.
The molecule `COc1ccc(CCN(C)CCc2ccc(OC)c(OC)c2)cc1OC.Cl` [YS-035 hydrochloride] returned a mean under setting [7] of 0.8264. The Replicate_1 under setting [8] worked out at 0.7595. The Replicate_2 under setting [9] stood at 0.8934.
Turning to `OC[C@H]1O[C@@H](n2cnc3c(NC4CCCCC4)ncnc32)[C@H](O)[C@@H]1O` [N6-Cyclohexyladenosine], the “mean (LOPAC_screen_w_protease)” value under setting [1] came to 1.471. Under setting [2], the “Replicate_1 (LOPAC_screen_w_protease)” value is given as 2.337. In addition, the “Replicate_2 (LOPAC_screen_w_protease)” value under setting [3] came out at 0.606.
Turning to `CC(C)CN(C)c1nc(N)c(C(=O)N=C(N)N)nc1Cl` [5-(N-Methyl-N-isobutyl)amiloride], the inhibition at 5 µM (sheet LOPAC_screen_w_protease, LOPAC1280 primary screen at 5 µM, with protease, mean of the two replicates, read-out: mean) was determined as 0.449%; the inhibition at 5 µM (sheet LOPAC_screen_w_protease, LOPAC1280 primary screen at 5 µM, with protease, replicate 1, read-out: Replicate_1) amounted to 0.238%; the inhibition at 5 µM (sheet LOPAC_screen_w_protease, LOPAC1280 primary screen at 5 µM, with protease, replicate 2, read-out: Replicate_2) came to 0.66%.
Regarding `CCCn1c(=O)c2[nH]c(C3CCCC3)nc2n(CCC)c1=O` [8-Cyclopentyl-1,3-dipropylxanthine], the “mean (LOPAC_screen_w_protease)” value under setting [1] is 1.568. The “Replicate_1 (LOPAC_screen_w_protease)” value under setting [2] was 3.936. For the same molecule, under setting [3], the “Replicate_2 (LOPAC_screen_w_protease)” value was -0.7999.
Regarding `CC1COc2c(N3CCN(C)CC3)c(F)cc3c(=O)c(C(=O)O)cn1c23` (centres unmarked) [Ofloxacin], the inhibition at 5 µM (sheet LOPAC_screen_w_protease, LOPAC1280 primary screen with protease, 5 µM compound, mean of the two replicates, read-out: mean) was 6.37%; the inhibition at 5 µM (sheet LOPAC_screen_w_protease, LOPAC1280 primary screen with protease, 5 µM compound, replicate 1, read-out: Replicate_1) is 5.61%; the inhibition at 5 µM (sheet LOPAC_screen_w_protease, LOPAC1280 primary screen with protease, 5 µM compound, replicate 2, read-out: Replicate_2) worked out at 7.14%.
On to `CN(C)c1nc(N)c(C(=O)NC(=N)N)nc1Cl` [5-(N,N-Dimethyl)amiloride hydrochloride], for which the inhibition at 5 µM came to 1.67% (LOPAC1280 primary screen with protease, 5 µM compound, replicate 1, read-out: Replicate_1 (LOPAC_screen_w_protease)) and 1.33% (LOPAC1280 primary screen with protease, 5 µM compound, replicate 2, read-out: Replicate_2 (LOPAC_screen_w_protease)). Also, the “mean (LOPAC_screen_w_protease)” value under setting [1] is on record as 1.502.
On to `COc1ccccc1CNCCCCCCNCCCCCCCCNCCCCCCNCc1ccccc1OC.Cl.Cl.Cl.Cl` [Methoctramine tetrahydrochloride], for which, for the setting “sheet LOPAC_screen_w_protease, primary screen of LOPAC1280 at 5 µM with protease, mean of the two replicates”, the mean was 4.069. For the same molecule, the Replicate_1 (sheet LOPAC_screen_w_protease, primary screen of LOPAC1280 at 5 µM with protease, replicate 1) came to 5.6561. Where the note is “sheet LOPAC_screen_w_protease, primary screen of LOPAC1280 at 5 µM with protease, replicate 2”, the Replicate_2 came to 2.482.
Turning to `O=c1[nH]c2cc(C(F)(F)F)ccc2n1-c1cc(C(F)(F)F)ccc1O` [NS-1619], where the note is “sheet LOPAC_screen_w_protease, primary screen at 5 µM, mean of two replicates”, the “mean (LOPAC screen with protease)” value was determined as 7.54. Further, where the note is “sheet LOPAC_screen_w_protease, primary screen at 5 µM, replicate 1”, the “Replicate_1 (LOPAC screen with protease)” value was 6.544. Moreover, the “Replicate_2 (LOPAC screen with protease)” value (sheet LOPAC_screen_w_protease, primary screen at 5 µM, replicate 2) was found to be 8.536.
For the molecule `CCN(CCCl)Cc1ccccc1Br.Cl` [DSP-4 hydrochloride], the mean under setting [4] was 6.32. The molecule also returned a Replicate_1 under setting [5] of 6.498. The molecule also returned a Replicate_2 under setting [6] of 6.142.
Take `O=C(N[C@@H](Cc1ccccc1)C(=O)CCl)OCc1ccccc1` [Z-L-Phe chloromethyl ketone]: the inhibition at 5 µM (sheet LOPAC_screen_w_protease, primary screen at 5 µM, mean of two replicates, read-out: mean (LOPAC screen with protease)) is 100%; the inhibition at 5 µM (sheet LOPAC_screen_w_protease, primary screen at 5 µM, replicate 1, read-out: Replicate_1 (LOPAC screen with protease)) amounted to 100%; the inhibition at 5 µM (sheet LOPAC_screen_w_protease, primary screen at 5 µM, replicate 2, read-out: Replicate_2 (LOPAC screen with protease)) is 100%.
Consider `O=C(Cc1ccc(Cl)c(Cl)c1)OCCN1CCCC1.O=C(O)C(=O)O` [AC 915 oxalate], for which the mean under setting [10] is 1.181. Also, the Replicate_1 under setting [11] is on record as 1.4848. For the same molecule, under setting [12], the Replicate_2 is given as 0.8765.
Consider `O=C(O)CCC(=O)N1CCC[C@H]1C(=O)O` [N-Succinyl-L-proline], for which, for the setting “sheet LOPAC_screen_w_protease, LOPAC1280 primary screen at 5 µM, with protease, mean of two replicates”, the mean is on record as -1.024. Under setting [8], this molecule had a Replicate_1 of 1.826. Also, the Replicate_2 under setting [9] was -3.873.
Under setting [13], `COc1ccc2c(c1)c(CC(=O)O)c(C)n2C(=O)c1ccccc1` came in with a mean of 2.541. For the same molecule, the Replicate_1 under setting [14] came out at 2.008. Besides, the Replicate_2 under setting [15] was found to be 3.073.
Regarding `Nc1nc(SCc2ccc([N+](=O)[O-])cc2)c2ncn([C@@H]3O[C@H](CO)[C@@H](O)[C@H]3O)c2n1` [S-(4-Nitrobenzyl)-6-thioguanosine], under “sheet LOPAC_screen_w_protease, primary screen with protease, 5 µM, mean of two replicates”, the mean is -0.2707. The Replicate_1 (sheet LOPAC_screen_w_protease, primary screen with protease, 5 µM, replicate 1) was 0.3471. For the setting “sheet LOPAC_screen_w_protease, primary screen with protease, 5 µM, replicate 2”, the Replicate_2 is -0.8885.
On to `Br.COc1ccc2c(c1)[C@]13CCCC[C@@H]1[C@H](C2)N(C)CC3.O`, for which the “mean (LOPAC_screen_w_protease)” value under setting [16] came out at 1.973. Moreover, under setting [2], the “Replicate_1 (LOPAC_screen_w_protease)” value was found to be 1.427.
`COc1ccccc1N1CCNCC1.Cl` gave a mean under setting [10] of 0.9162. The Replicate_1 under setting [11] was 1.248. This molecule registered a Replicate_2 under setting [12] of 0.5839.
Under setting [4], `CSc1nc(N)c2ncn([C@@H]3O[C@H](COP(=O)(O)OP(=O)(O)O)[C@@H](O)[C@H]3O)c2n1.[Na].[Na].[Na]` came in with a mean of 4.674. For the same molecule, under setting [5], the Replicate_1 turned out to be 4.609. In addition, the Replicate_2 under setting [6] stood at 4.739.
Take `Nc1ncnc2c1nc(Sc1ccc(Cl)cc1)n2C1OC2COP(=O)(O)OC2C1O` (stereo in doubt) [8-(4-Chlorophenylthio)-cAMP sodium]: the mean under setting [7] came to 0.5451. For the same molecule, under setting [8], the Replicate_1 is 0.8706. Moreover, the Replicate_2 under setting [9] was found to be 0.2195.
Turning to `N[C@@H](COP(=O)(O)O)C(=O)O` [O-Phospho-L-serine], under setting [4], the mean amounted to 5.279. The Replicate_1 under setting [5] was 3.193. Under setting [6], this molecule came in with a Replicate_2 of 7.365.
On to `CCCN(CC1CC1)c1nc(C)nc(Nc2c(Cl)cc(Cl)cc2Cl)c1Cl` [NBI 27914], for which, under setting [13], the mean turned out to be 2.264. Also, the Replicate_1 under setting [14] worked out at 4.203. The molecule also came in with a Replicate_2 under setting [15] of 0.3255.
Under setting [4], `CC(N)(C(=O)O)c1ccc(C(=O)O)cc1` (racemic) [(±)-alpha-Methyl-4-carboxyphenylglycine] displayed a mean of 4.794. Further, under setting [5], the Replicate_1 came to 3.648. Moreover, the Replicate_2 under setting [6] is 5.939.
For `COc1cc(C(=O)OCCCN2CCCN(CCCOC(=O)c3cc(OC)c(OC)c(OC)c3)CC2)cc(OC)c1OC` [Dilazep hydrochloride], the inhibition at 5 µM was 3.29% (sheet LOPAC_screen_w_protease, primary screen of LOPAC1280 at 5 µM with protease, mean of the two replicates, read-out: mean); 2.23% (sheet LOPAC_screen_w_protease, primary screen of LOPAC1280 at 5 µM with protease, replicate 1, read-out: Replicate_1); 4.35% (sheet LOPAC_screen_w_protease, primary screen of LOPAC1280 at 5 µM with protease, replicate 2, read-out: Replicate_2).
For the molecule `O=C(O)c1cc2cc(F)ccc2[nH]1` [5-Fluoroindole-2-carboxylic acid], the inhibition at 5 µM reads like this: (sheet LOPAC_screen_w_protease, primary screen with protease, 5 µM, mean of two replicates, read-out: mean) -0.381%; (sheet LOPAC_screen_w_protease, primary screen with protease, 5 µM, replicate 1, read-out: Replicate_1) 0.54%; (sheet LOPAC_screen_w_protease, primary screen with protease, 5 µM, replicate 2, read-out: Replicate_2) -1.3%.
As to `Cl.c1ccc2sc(C3(N4CCCCC4)CCCCC3)cc2c1` [BTCP hydrochloride], the “mean (LOPAC_screen_w_protease)” value under setting [16] amounted to 2.11. Further, the “Replicate_1 (LOPAC_screen_w_protease)” value under setting [2] is on record as 1.768. Besides, the “Replicate_2 (LOPAC_screen_w_protease)” value under setting [3] stood at 2.452.
